The test system of the assay is Plasmodium berghei. In words: Luciferase/luciferin-expressing antifolate-resistant parasites were used to infect a culture of HepG2 cells that were pre-incubated with compounds. Infected hepatocytes emit light due to the luciferase reaction. Assay results are presented as the percent inhibition of light emission compared to control. […]. Type of assay: functional. Particulars: sporozoite; for IC90: read-out: LUCIFERASE INFECTION ASSAY - IC90.

The mark [1] stands for this setting: read-out: LUCIFERASE INFECTION ASSAY - IC50.

A value given as a limit tells only on which side of the number the result lay.

A word on the IC50: it is the concentration at which inhibition is half-maximal. The term IC90 denotes the concentration needed for an effect of 90%. For the compound `CCN1C/C(=C/c2cc(Cl)c(OC(C)C)c(OC)c2)C(=O)/C(=C/c2cc(Cl)c(OC(C)C)c(OC)c2)C1`, the IC90 was 3.46 µM. The IC50 (HEPG2TOX_HILL_SLOPE 9.62, 4.07, HEPG2TOX_R_SQUARED 0.967, 0.574, PBLUC_HILL_SLOPE 16.5, 9.41, PBLUC_R_SQUARED 0.287, 0.470, read-out: LUCIFERASE INFECTION ASSAY - IC50) is 2.85 µM.
Take `O=C1C=C/C(=N\Nc2ccc3c(c2)OCCO3)c2cccnc21`: the concentration for an effect of 90% (IC90) was 3.95 µM. In addition, the IC50 (HEPG2TOX_HILL_SLOPE 2.89, HEPG2TOX_R_SQUARED 0.923, PBLUC_HILL_SLOPE 13, PBLUC_R_SQUARED 0.601, read-out: LUCIFERASE INFECTION ASSAY - IC50) amounted to 3.33 µM.
As to `Cc1ccc2[nH]c3c(c2c1)CCCC3N` (stereo unspecified), the IC90 is 10.5 µM. Besides, for the setting “HEPG2TOX_HILL_SLOPE 3.36, HEPG2TOX_R_SQUARED 0.51, PBLUC_HILL_SLOPE 2.39, PBLUC_R_SQUARED 0.343, read-out: LUCIFERASE INFECTION ASSAY - IC50”, the half-maximal inhibitory concentration (IC50) came out at 4.17 µM.
Take `CCOc1ccc(C=C(c2nc3ccccc3s2)c2nc3ccccc3s2)cc1OC`: the IC90 is 4.51 µM. Where the note is “HEPG2TOX_HILL_SLOPE 4.58, HEPG2TOX_R_SQUARED 0.874, PBLUC_HILL_SLOPE 9.07, PBLUC_R_SQUARED 0.629, read-out: LUCIFERASE INFECTION ASSAY - IC50”, the half-inhibitory concentration (IC50) amounted to 3.54 µM.
With `c1ccc2c(CSCCC34CC5CC(CC(C5)C3)C4)cccc2c1`, the IC90 was more than 10 µM. Moreover, under setting [1], the IC50 was more than 10 µM.
`NC(CCc1ccccc1)c1csc(Nc2cc(NCCCO)ncn2)n1` (stereo unspecified): the concentration for an effect of 90% (IC90) is more than 8.58 µM. Also, the IC50 (HEPG2TOX_HILL_SLOPE 1.38, HEPG2TOX_R_SQUARED 0.93, PBLUC_HILL_SLOPE 3.41, PBLUC_R_SQUARED 0.149, read-out: LUCIFERASE INFECTION ASSAY - IC50) turned out to be 6.73 µM.
With `Clc1cccc(CNc2nnnn2-c2ccccc2)c1`, the IC90 is more than 10 µM. Also, the IC50 (PBLUC_HILL_SLOPE 2.12, PBLUC_R_SQUARED 0.274, read-out: LUCIFERASE INFECTION ASSAY - IC50) stood at 8.09 µM.
Regarding `CCN(CC)c1ccc(S(=O)(=O)N2CCCCC2)cc1NC(=O)c1ccc2c(c1)nnn2CC`, the IC90 is more than 10 µM. The IC50 (FFLUC_HILL_SLOPE 1.06, FFLUC_R_SQUARED 0.385, read-out: LUCIFERASE INFECTION ASSAY - IC50) is more than 10 µM.
Regarding `CCCSC(=S)c1c(C)nn(-c2ccccc2)c1O`, the IC90 was more than 11.3 µM. Further, the IC50 (PBLUC_HILL_SLOPE 10.5, PBLUC_R_SQUARED 0.318, read-out: LUCIFERASE INFECTION ASSAY - IC50) is 10.1 µM.
Regarding `CC(=O)c1ccccc1NC(=O)COC(=O)c1c2c(nc3ccccc13)CCC2`, the IC90 was more than 10 µM. For the setting “HEPG2TOX_HILL_SLOPE 1.9, HEPG2TOX_R_SQUARED 0.384, PBLUC_HILL_SLOPE 3.75, PBLUC_R_SQUARED 0.218, read-out: LUCIFERASE INFECTION ASSAY - IC50”, the half-maximal inhibitory concentration (IC50) stood at 6.16 µM.
As for `C=CCn1c(SCC(=O)c2cc(C)n(-c3cc(F)ccc3F)c2C)nc2scc(-c3ccccc3)c2c1=O`, the IC90 amounted to 8.56 µM. Further, the 50% inhibitory concentration (IC50) (PBLUC_HILL_SLOPE 5.29, PBLUC_R_SQUARED 0.561, read-out: LUCIFERASE INFECTION ASSAY - IC50) came to 5.65 µM.
Turning to `Cc1ccc2nc(-c3ccc(N(C)C)cc3)[nH]c2c1`, the 90% effect concentration (IC90) was 5.96 µM. Moreover, the IC50 (FFLUC_HILL_SLOPE 0.944, FFLUC_R_SQUARED 0.925, PBLUC_HILL_SLOPE 0.907, PBLUC_R_SQUARED 0.785, read-out: LUCIFERASE INFECTION ASSAY - IC50) turned out to be 0.53 µM.
In the case of `Cc1nc(=O)c2c([nH]1)NC(=O)CC2c1cc(F)ccc1F` (stereo unspecified), the concentration for an effect of 90% (IC90) was more than 11.3 µM. Further, the IC50 under setting [1] is more than 11.3 µM.
Turning to `CC(C)(C)OC(=O)N1CCN(CN2C(=O)NC3(CCCCC3)C2=O)CC1`, the IC90 was more than 10 µM. In addition, the half-maximal inhibitory concentration (IC50) under setting [1] is more than 10 µM.
Regarding `CCc1cccc(CC)c1NC(=O)/C(C#N)=C/c1ccccc1C(F)(F)F`, the IC90 was 4.5 µM. Also, the IC50 under setting [1] was 3.68 µM.
For the compound `CCNC(=O)c1nn(CC2CC2)c2c1CN(C(=O)c1cc(-c3ccccc3F)n[nH]1)CC2`, the IC90 came to 4.07 µM. Besides, the 50% inhibitory concentration (IC50) (PBLUC_HILL_SLOPE 5.13, PBLUC_R_SQUARED 0.551, read-out: LUCIFERASE INFECTION ASSAY - IC50) is 2.65 µM.
Regarding `Cc1cc(O)cc2c1C(=O)/C(=C/c1cc(Cl)cc3c1OCOC3)O2`, the IC90 is more than 9.57 µM. Besides, the 50% inhibitory concentration (IC50) (HEPG2TOX_HILL_SLOPE 1.65, HEPG2TOX_R_SQUARED 0.863, PBLUC_HILL_SLOPE 8.6, PBLUC_R_SQUARED 0.504, read-out: LUCIFERASE INFECTION ASSAY - IC50) turned out to be 8.66 µM.
On to `CC(C)(C)C(=O)ONC(N)=CS(=O)(=O)c1ccc(Cl)cc1`, for which the IC90 was more than 9.92 µM. In addition, the IC50 under setting [1] is more than 9.92 µM.
For the compound `O=S(=O)(Cc1cc(N2CCN(c3ccccc3)CC2)nc(-c2ccccn2)n1)c1ccccc1`, the 90% effect concentration (IC90) is more than 7 µM. Also, under setting [1], the half-inhibitory concentration (IC50) was more than 7 µM.
Take `O=C(NCC#Cc1cccc(C(F)(F)F)c1)c1[nH]nc2ccccc12`: the concentration for an effect of 90% (IC90) is more than 10 µM. Also, where the note is “FFLUC_HILL_SLOPE 1.72, FFLUC_R_SQUARED 0.47, read-out: LUCIFERASE INFECTION ASSAY - IC50”, the IC50 is more than 10 µM.
Consider `COC(=O)c1c(C)nn(C(=O)c2ccc(Cl)cc2)c1-c1snnc1C`, for which the IC90 was more than 8.76 µM. The half-inhibitory concentration (IC50) under setting [1] was more than 8.76 µM.
Take `CC(C)=CC(=O)NC(c1ccccc1)c1ccc(Cl)cc1` (stereo unspecified): the IC90 is more than 10 µM. Besides, the IC50 under setting [1] was more than 10 µM.
With `CNc1snc(C)c1C(=O)OCc1cc(C(=O)OC)c(C)o1`, the IC90 is 2.41 µM. The half-inhibitory concentration (IC50) (HEPG2TOX_HILL_SLOPE 0.962, HEPG2TOX_R_SQUARED 0.934, PBLUC_HILL_SLOPE 25, PBLUC_R_SQUARED 0.565, read-out: LUCIFERASE INFECTION ASSAY - IC50) came out at 2.2 µM.
Take `O=C(c1nn(-c2ccccc2)c2c1CCC2)N1CCn2c1nc1ccccc12`: the IC90 was more than 10 µM. Besides, under setting [1], the 50% inhibitory concentration (IC50) is more than 10 µM.
With `Cc1nc(NCc2ccc(-n3ccnc3)nc2)c2c(-c3ccccc3)csc2n1`, the IC90 was determined as 4.03 µM. Moreover, where the note is “HEPG2TOX_HILL_SLOPE 1.9, HEPG2TOX_R_SQUARED 0.893, PBLUC_HILL_SLOPE 8.93, PBLUC_R_SQUARED 0.705, read-out: LUCIFERASE INFECTION ASSAY - IC50”, the IC50 is 3.15 µM.
Consider `COc1ccc(O)c(C=C(c2nc3ccccc3s2)c2nc3ccccc3s2)c1`, for which the concentration for an effect of 90% (IC90) is more than 10 µM. The 50% inhibitory concentration (IC50) (FFLUC_HILL_SLOPE 21.2, FFLUC_R_SQUARED 0.491, read-out: LUCIFERASE INFECTION ASSAY - IC50) is more than 10 µM.
As for `O=C(Nc1cccc(/C=C/c2ccc3cccc(O)c3n2)c1)C(F)(F)F`, the IC90 was more than 10 µM. Further, where the note is “PBLUC_HILL_SLOPE 13.5, PBLUC_R_SQUARED 0.34, read-out: LUCIFERASE INFECTION ASSAY - IC50”, the half-maximal inhibitory concentration (IC50) came out at 8.84 µM.
As to `Cc1cc(C(=O)Cn2nnc3ccccc3c2=O)c(C)n1-c1ccccc1`, the IC90 came out at 0.0451 µM. The half-maximal inhibitory concentration (IC50) (HEPG2TOX_HILL_SLOPE 3.03, HEPG2TOX_R_SQUARED 0.216, PBLUC_HILL_SLOPE 10.9, PBLUC_R_SQUARED 0.324, read-out: LUCIFERASE INFECTION ASSAY - IC50) came out at 0.0369 µM.
With `O=C(NCc1ccco1)C1Cc2c(-c3ccccc3)ccnc2O1` (stereo unspecified), the IC90 was 3.73 µM. Besides, the IC50 (HEPG2TOX_HILL_SLOPE 12.7, HEPG2TOX_R_SQUARED 0.925, PBLUC_HILL_SLOPE 2.58, PBLUC_R_SQUARED 0.503, read-out: LUCIFERASE INFECTION ASSAY - IC50) stood at 1.59 µM.
As for `CCc1ccc2nc(NC(=O)c3nccnc3N)sc2c1`, the concentration for an effect of 90% (IC90) was more than 10 µM. The half-maximal inhibitory concentration (IC50) (HEPG2TOX_HILL_SLOPE 7.58, HEPG2TOX_R_SQUARED 0.761, PBLUC_HILL_SLOPE 15.5, PBLUC_R_SQUARED 0.446, read-out: LUCIFERASE INFECTION ASSAY - IC50) is 9.33 µM.
Take `Cc1cccc(NC(=O)CN(C)C(=O)/C=C/c2ccccc2)c1C`: the 90% effect concentration (IC90) was more than 10 µM. Also, under setting [1], the concentration for half-maximal inhibition (IC50) was more than 10 µM.
Turning to `CN(C)c1ccc(C(c2cc(C(C)(C)C)c(O)c(C(C)(C)C)c2)N2CCCCC2)cc1` (stereo unspecified), the 90% effect concentration (IC90) is more than 10 µM. Besides, under setting [1], the IC50 was more than 10 µM.
With `CCOC(=O)N/N=C(\CC)c1ccc(-c2ccccc2F)cc1`, the IC90 is more than 10.5 µM. Besides, the IC50 (HEPG2TOX_HILL_SLOPE 16.9, HEPG2TOX_R_SQUARED 0.877, PBLUC_HILL_SLOPE 3.23, PBLUC_R_SQUARED 0.461, read-out: LUCIFERASE INFECTION ASSAY - IC50) came out at 6.06 µM.
Take `C=c1c(Nc2cccc(C(F)(F)F)c2)cc(Nc2cccc(C(F)(F)F)c2)c(O)c1=C`: the 90% effect concentration (IC90) is more than 10 µM. The IC50 (PBLUC_HILL_SLOPE 2.41, PBLUC_R_SQUARED 0.317, read-out: LUCIFERASE INFECTION ASSAY - IC50) came to 7.29 µM.
Regarding `CCN(CC)Cc1ccccc1CNC(=O)c1cccc2ccccc12`, the IC90 is more than 10 µM. The 50% inhibitory concentration (IC50) under setting [1] was more than 10 µM.
As to `CNC(=O)CN(c1cc(OCCOC)c(Cl)cc1Cl)S(=O)(=O)c1ccc(OC)cc1`, the concentration for an effect of 90% (IC90) was 0.87 µM. The IC50 (HEPG2TOX_HILL_SLOPE 3.52, HEPG2TOX_R_SQUARED 0.986, PBLUC_HILL_SLOPE 18.4, PBLUC_R_SQUARED 0.669, read-out: LUCIFERASE INFECTION ASSAY - IC50) came to 0.771 µM.
As for `CCn1c(C)nc2cc(C(=O)NNC(=O)c3cc4c(C)nn(-c5cccc(C(F)(F)F)c5)c4s3)ccc21`, the IC90 was more than 10 µM. Also, the half-maximal inhibitory concentration (IC50) under setting [1] was more than 10 µM.
For the compound `CCOc1ccc(-n2c(-c3ccc(Cl)cc3)c[n+]3c2SCC3)cc1`, the IC90 worked out at 8.41 µM. Besides, under “HEPG2TOX_HILL_SLOPE 17.5, HEPG2TOX_R_SQUARED 0.639, PBLUC_HILL_SLOPE 3.46, PBLUC_R_SQUARED 0.768, read-out: LUCIFERASE INFECTION ASSAY - IC50”, the IC50 is 4.45 µM.

Source of the values: ChEMBL document CHEMBL4483862, “Open-source discovery of chemical leads for next-generation chemoprotective antimalarials” (2018).
